From PubChem BioAssay AID1259407 (Chemical Carcinogenesis Research Information System (CCRIS), 2018)
The source made the active and inactive calls. How the calls were made is not given here.

System: CCRIS mutagenicity, Ames/micronucleus/aberration tests
Assay: CCRIS mutagenicity studies
[1] = Test System: AMES SALMONELLA TYPHIMURIUM, Strain/Indicator: TA98, Metabolic Activation: RAT, LIVER, S-9, Method: STANDARD PLATE
[2] = Test System: AMES SALMONELLA TYPHIMURIUM, Strain/Indicator: TA100, Metabolic Activation: RAT, LIVER, S-9, AROCLOR 1254, Method: STANDARD PLATE
[3] = Test System: AMES SALMONELLA TYPHIMURIUM, Strain/Indicator: TA98, Metabolic Activation: HAMSTER, LIVER, S-9, AROCLOR 1254 (10%), Method: PREINCUBATION
[4] = Test System: AMES SALMONELLA TYPHIMURIUM, Strain/Indicator: TA98, Metabolic Activation: NONE, Method: PREINCUBATION
[5] = Test System: AMES SALMONELLA TYPHIMURIUM, Strain/Indicator: TA98, Metabolic Activation: RAT, LIVER, S-9, AROCLOR 1254 (10%), Method: PREINCUBATION
[6] = Test System: AMES SALMONELLA TYPHIMURIUM, Strain/Indicator: TA100, Metabolic Activation: HAMSTER, LIVER, S-9, AROCLOR 1254 (10%), Method: PREINCUBATION
[7] = Test System: AMES SALMONELLA TYPHIMURIUM, Strain/Indicator: TA100, Metabolic Activation: NONE, Method: PREINCUBATION
[8] = Test System: AMES SALMONELLA TYPHIMURIUM, Strain/Indicator: TA100, Metabolic Activation: RAT, LIVER, S-9, AROCLOR 1254 (10%), Method: PREINCUBATION
[9] = Test System: AMES SALMONELLA TYPHIMURIUM, Strain/Indicator: TA1535, Metabolic Activation: NONE, Method: PREINCUBATION
[10] = Test System: AMES SALMONELLA TYPHIMURIUM, Strain/Indicator: TA1535, Metabolic Activation: RAT, LIVER, S-9, AROCLOR 1254 (10%), Method: PREINCUBATION
[11] = Test System: AMES SALMONELLA TYPHIMURIUM, Strain/Indicator: TA1537, Metabolic Activation: NONE, Method: PREINCUBATION
[12] = Test System: AMES SALMONELLA TYPHIMURIUM, Strain/Indicator: TA1537, Metabolic Activation: RAT, LIVER, S-9, AROCLOR 1254 (10%), Method: PREINCUBATION

Measured: mutagenic call

O[C@H]1C=Cc2c(cc3ccc4cccc5ccc2c3c45)[C@@H]1O
inactive: Test System: AMES SALMONELLA TYPHIMURIUM, Strain/Indicator: TA1537, Metabolic Activation: RAT, LIVER, S-9 AROCLOR 1254, Method: STANDARD PLATE inactive; negative | Test System: AMES SALMONELLA TYPHIMURIUM, Strain/Indicator: TA1538, Metabolic Activation: NONE, Method: HOST-MEDIATED inactive; negative
active: Test System: AMES SALMONELLA TYPHIMURIUM, Strain/Indicator: TA97, Metabolic Activation: RAT, LIVER, S-9, AROCLOR 1254, Method: STANDARD PLATE active; positive | Test System: AMES SALMONELLA TYPHIMURIUM, Strain/Indicator: TA98, Metabolic Activation: NONE, Method: HOST-MEDIATED active; positive | Test System: AMES SALMONELLA TYPHIMURIUM, Strain/Indicator: TA98, Metabolic Activation: RAT, LIVER, 3-METHYLCHOLANTHRENE, Method: LIQUID SUSPENSION active; positive | Test System: AMES SALMONELLA TYPHIMURIUM, Strain/Indicator: TA98, Metabolic Activation: RAT, LIVER, S-9, AROCLOR 1254, Method: STANDARD PLATE active; positive | [1] active; positive | Test System: AMES SALMONELLA TYPHIMURIUM, Strain/Indicator: TA100, Metabolic Activation: EPITHELIAL CELL-MEDIATED, AROCLOR 1254, Method: PREINCUBATION active; positive | Test System: AMES SALMONELLA TYPHIMURIUM, Strain/Indicator: TA100, Metabolic Activation: EPITHELIAL CELL-MEDIATED, NADPH, Method: PREINCUBATION active; positive | Test System: AMES SALMONELLA TYPHIMURIUM, Strain/Indicator: TA100, Metabolic Activation: EPITHELIAL CELL-MEDIATED, Method: PREINCUBATION active; positive | Test System: AMES SALMONELLA TYPHIMURIUM, Strain/Indicator: TA100, Metabolic Activation: KUPFFER CELL-MEDIATED, AROCLOR 1254, Method: PREINCUBATION active; positive | Test System: AMES SALMONELLA TYPHIMURIUM, Strain/Indicator: TA100, Metabolic Activation: KUPFFER CELL-MEDIATED, NADPH, Method: PREINCUBATION active; positive | Test System: AMES SALMONELLA TYPHIMURIUM, Strain/Indicator: TA100, Metabolic Activation: KUPFFER CELL-MEDIATED, Method: PREINCUBATION active; positive | Test System: AMES SALMONELLA TYPHIMURIUM, Strain/Indicator: TA100, Metabolic Activation: NONE, Method: HOST-MEDIATED active; positive | Test System: AMES SALMONELLA TYPHIMURIUM, Strain/Indicator: TA100, Metabolic Activation: PARENCHYMAL CELL-MEDIATED, AROCLOR 1254, Method: PREINCUBATION active; positive | Test System: AMES SALMONELLA TYPHIMURIUM, Strain/Indicator: TA100, Metabolic Activation: PARENCHYMAL CELL-MEDIATED, NADPH, Method: PREINCUBATION active; positive | Test System: AMES SALMONELLA TYPHIMURIUM, Strain/Indicator: TA100, Metabolic Activation: PARENCHYMAL CELL-MEDIATED, Method: PREINCUBATION active; positive | [2] active; positive | Test System: AMES SALMONELLA TYPHIMURIUM, Strain/Indicator: TA100, Metabolic Activation: RAT, LIVER, S-9, Method: STANDARD PLATE active; positive | Test System: AMES SALMONELLA TYPHIMURIUM, Strain/Indicator: TA1538, Metabolic Activation: RAT, LIVER, S-9, Method: STANDARD PLATE active; positive | Test System: CHINESE HAMSTER V-79, Strain/Indicator: V-79/6-THIOGUANINE, Metabolic Activation: RAT, LIVER, S-9, AROCLOR 1254 active; positive | Test System: CHINESE HAMSTER V-79, Strain/Indicator: V-79/8-AZAGUANINE, Metabolic Activation: CELL-MEDIATED, Method: STANDARD PLATE active; positive | Test System: CHINESE HAMSTER V-79, Strain/Indicator: V-79/8-AZAGUANINE, Metabolic Activation: NONE, Method: STANDARD PLATE active; positive | Test System: CHINESE HAMSTER V-79, Strain/Indicator: V-79/OUABAIN, Metabolic Activation: CELL-MEDIATED, Method: STANDARD PLATE active; positive | Test System: CHINESE HAMSTER V-79, Strain/Indicator: V-79/OUABAIN, Metabolic Activation: HAMSTER, EMBRYO, CELL-MEDIATED, Method: STANDARD PLATE active; positive

O=P(Oc1ccccc1)(Oc1ccccc1)Oc1ccccc1
inactive: [3] inactive; negative | [4] inactive; negative | [5] inactive; negative | [6] inactive; negative | [7] inactive; negative | [8] inactive; negative | Test System: AMES SALMONELLA TYPHIMURIUM, Strain/Indicator: TA1535, Metabolic Activation: HAMSTER, LIVER, S-9, AROCLOR 1254 (10 OR 50%), Method: PREINCUBATION inactive; negative | [9] inactive; negative | [10] inactive; negative | Test System: AMES SALMONELLA TYPHIMURIUM, Strain/Indicator: TA1537, Metabolic Activation: HAMSTER, LIVER, S-9, AROCLOR 1254 (10 OR 50%), Method: PREINCUBATION inactive; negative | [11] inactive; negative | [12] inactive; negative

N#CCBr
inactive: [3] inactive; negative | [4] inactive; negative | [5] inactive; negative | [6] inactive; negative | Test System: AMES SALMONELLA TYPHIMURIUM, Strain/Indicator: TA100, Metabolic Activation: NONE, Method: FLUCTUATION TEST inactive; negative | [7] inactive; negative | [8] inactive; negative | Test System: AMES SALMONELLA TYPHIMURIUM, Strain/Indicator: TA1535, Metabolic Activation: HAMSTER, LIVER, S-9, AROCLOR 1254 (10%), Method: PREINCUBATION inactive; negative | [9] inactive; negative | [10] inactive; negative | Test System: AMES SALMONELLA TYPHIMURIUM, Strain/Indicator: TA1537, Metabolic Activation: HAMSTER, LIVER, S-9, AROCLOR 1254 (10%), Method: PREINCUBATION inactive; negative | [11] inactive; negative | [12] inactive; negative
active: Test System: AMES SALMONELLA TYPHIMURIUM, Strain/Indicator: TA100, Metabolic Activation: RAT, LIVER, S-9, AROCLOR 1254, Method: FLUCTUATION TEST active; positive

Cc1ccc2c(c1)c(=NC(=O)c1ccc([N+](=O)[O-])cc1)sn2C(=O)c1ccc([N+](=O)[O-])cc1
active: Test System: AMES SALMONELLA TYPHIMURIUM, Strain/Indicator: TA100, Metabolic Activation: S-9, Method: STANDARD PLATE active; positive

CNC(=O)NOC(=O)N(C)C(=O)NC
inactive: Test System: AMES SALMONELLA TYPHIMURIUM, Strain/Indicator: TA98, Metabolic Activation: NONE, Method: STANDARD PLATE inactive; negative | [1] inactive; negative | Test System: AMES SALMONELLA TYPHIMURIUM, Strain/Indicator: TA100, Metabolic Activation: NONE, Method: STANDARD PLATE inactive; negative

COCC(O)Cn1ccnc1[N+](=O)[O-] (stereo unspecified)
active: Test System: E. COLI, Strain/Indicator: WP2 UVRA, Metabolic Activation: NONE, Method: STANDARD PLATE active; positive

OCc1ccc2nc3c(ccc4ccccc43)c(CO)c2c1
active: [2] active; positive

C#CC(OC(=O)C1C(C=C(C)C)C1(C)C)/C(C)=C/CC (stereo unspecified)
inactive: Test System: AMES SALMONELLA TYPHIMURIUM, Strain/Indicator: TA98, Metabolic Activation: NONE, Method: MICROSUSPENSION inactive; negative | Test System: AMES SALMONELLA TYPHIMURIUM, Strain/Indicator: TA98, Metabolic Activation: S-9, Method: MICROSUSPENSION inactive; negative | Test System: AMES SALMONELLA TYPHIMURIUM, Strain/Indicator: TA100, Metabolic Activation: NONE, Method: MICROSUSPENSION inactive; negative | Test System: AMES SALMONELLA TYPHIMURIUM, Strain/Indicator: TA100, Metabolic Activation: S-9, Method: MICROSUSPENSION inactive; negative
